Assay results as given in Sander's compilation of Henry's law constants (doi:10.1007/bf00475967).

Test: Henry solubility constant Hcp at 295 K (mol/(m3 Pa))
Settings: reference: Hellmann (1987)

| SMILES | Henry solubility constant Hcp at 295 K |
| --- | --- |
| Clc1cc(Cl)cc(Cl)c1 [1,3,5-trichlorobenzene] | 0.035 |
| O=[N+]([O-])c1ccc(Cl)cc1 [4-chloronitrobenzene] | 0.18 |
| CC(=O)CC(C)C [4-methyl-2-pentanone] | 0.065 |
| c1ccccc1 [benzene] | 0.002 |
| Clc1ccccc1 [chlorobenzene] | 0.0029 |
| ClCCl [dichloromethane] | 0.0057 |
| O=[N+]([O-])c1ccccc1 [nitrobenzene] | 0.14 |
| CCCCCOC(C)=O [pentyl ethanoate] | 0.034 |
| CC(C)=O [propanone] | 0.14 |
| ClC(Cl)=C(Cl)Cl [tetrachloroethene] | 0.00077 |
| ClC(Cl)(Cl)Cl [tetrachloromethane] | 0.00033 |
| ClC=C(Cl)Cl [trichloroethene] | 0.00098 |
